The text below walks through data of patent US9284350B2, “IAP BIR domain binding compounds” (Pharmascience Inc., priority 2010, dated 2016).

Some results are limits rather than exact numbers.

For one assay, the target named is T1, cIAP2 (Homo sapiens, UniProt Q13489).
T1 construct: GST (N); made in house; host or cells: E. coli DH5α
Briefly: Fluorescence polarization-based competition assay, cIAP2. It counts as binding. To be noted: FP assay, ki derived from IC50. How it is done: (§1) Binding of compounds of Formula 1 to target BIR domains was measured using a fluorescence-polarization (FP) assay. Fluorescence-polarization was evaluated using a GENios microplate reader (TECAN) Pro instrument with the excitation filter set at 485 nm and the emission filter set at 535 nm. The final amount of protein used in the assay corresponds to the amount of protein necessary to obtain 80% of the maximum FP value in a P1 or P2 fluorescent (FITC) probe saturation experiment. The compounds potency (IC50) and selectivity, was assessed in the presence of the amount of target protein established, fluorescent probe, and a 10 point serial dilution in assay buffer (50 mM Hepes, pH 7.5, 250 mcg/mL γ-globulin, 2 mM DTT, 1% DMSO) of the selected compounds.
(§2) Assays were carried out in duplicate using untreated black 96-well plates (Corning #3915) and a total volume of 100 microliters, containing 25 microliters of fluorescent probe at a final concentration of 2 nM in assay buffer, 25 microliters of diluted compound, 25 microliters of BIR protein into assay buffer and 25 microliters of assay buffer. Buffer only (blank) or probe only in buffer (G-factor) were used as controls for calibration. The plate was incubated at room temperature in the dark for one hour and FP values in millipolarization units (mP) were recorded using Genios Pro FP reader.
(§3) The measured FP values (mP) were then plotted against compound concentration, and IC50 values were calculated based on a sigmoidal dose-response (variable-slope) curve fit using GraphPad Prism version 4.02 for Windows, GraphPad Software, San Diego Calif. USA and/or CambridgeSoft BioAssay Enterprise Version 10.1. The IC50 value is the concentration of test compound at which 50% of the tracer was displaced. ki values were derived from the calculated IC50 values as described above and according to the equation described in Nikolovska-Coleska, Z. (2004) Anal Biochem 332, 261-273. The results are presented in Table 2, wherein A=less than 25 nM; B=less than 250 nM; C=less than 1000 nM; and D=greater than 1000 nM.

In another assay the target is T2, c-IAP1 (Homo sapiens, UniProt Q13490).
T2 construct: GST (N); made in house; host or cells: E. coli DH5α
Briefly: Fluorescence polarization-based competition assay, c-IAP1. It counts as binding. The settings on record: FP assay, ki derived from IC50. As for the experimental part: as §1, §2, §3
For orientation: In fluorescence polarisation assays a small probe gives low polarisation when free and higher when bound to something large.

The next assay addresses T3, XIAP (Homo sapiens, UniProt P98170).
T3 construct: fused on or other part: GST tag at the N-terminus (pGEX4T vectors)
The assay can be described thus: Fluorescence polarization-based competition assay, XIAP. It counts as binding. The settings on record: FP assay, ki derived from IC50. How it is done:
as §1, §2, §3

In assay [1] the test system is Colorectal carcinoma HCT116 cells. The assay can be described thus: Cell death assay (MTT) in combination with HGS ETR1. It counts as cell-based. To be noted: with HGS ETR1 30 ng/ml, 72 hours, read-out: HCT116+ mapatubimap EC50. How it is done:
Colorectal carcinoma HCT116 cells were cultured as monolayers in 96 well plates at a density of 2000 cells per well in McCoy's 5a medium (HyClone) supplemented with 2.2 g/L sodium bicarbonate, 10% FBS (HyClone) and 1% penicillin/streptomycin (HyClone). 24 hours later, triplicate wells were treated with HGS ETR1 (30 ng/ml) in combination with compound. Cells were incubated in the presence of compound and HGS agonistic Trail receptor antibody, ETR1 (Mapatumamab, 30 ng/ml) for 72 hours. Metabolic viability of remaining cells was assessed by MTT (thiazolyl blue tetrazolium bromide, Sigma) assay.
EC50 values (50% cell survival in the presence of compound as compared to untreated controls) were calculated from survival curves using BioAssay software (CambridgeSoft) and GraphPad Prism (Graph Pad Software Inc.). The results are provided in Table 3, below, wherein A=less than 50 nM; B=less than 250 nM; C=less than 1000 nM; and D=greater than 1000 nM.

T1 sequence (Q13489 236-349): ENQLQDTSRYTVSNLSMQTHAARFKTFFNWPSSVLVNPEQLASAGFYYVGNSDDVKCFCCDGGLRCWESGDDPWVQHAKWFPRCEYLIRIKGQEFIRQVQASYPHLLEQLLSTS
T3 sequence (P98170 246-497 limits assumed): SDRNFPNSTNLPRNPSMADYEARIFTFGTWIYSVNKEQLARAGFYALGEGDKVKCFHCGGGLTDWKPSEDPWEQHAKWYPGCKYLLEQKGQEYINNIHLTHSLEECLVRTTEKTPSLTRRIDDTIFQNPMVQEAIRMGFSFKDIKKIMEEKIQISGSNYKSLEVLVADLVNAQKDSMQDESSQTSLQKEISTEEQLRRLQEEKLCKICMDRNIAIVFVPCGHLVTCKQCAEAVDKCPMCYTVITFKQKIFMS
T2 sequence (Q13490 251-363): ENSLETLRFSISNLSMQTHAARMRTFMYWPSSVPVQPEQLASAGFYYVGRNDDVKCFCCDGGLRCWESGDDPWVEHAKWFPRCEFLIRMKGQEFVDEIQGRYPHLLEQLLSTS

In general, Ki refers to the dissociation constant of the complex between target and ligand, obtained from inhibition or displacement. What is called EC50 is the concentration needed to bring the measured effect to its halfway point. For `CN[C@@H](C)C(=O)N[C@H](C(=O)N1CCC[C@H]1CN(CCc1ccc(F)cc1)C(=O)c1cn2c(n1)CCC2)C(C)(C)C` [Compound 67], the values for the inhibition constant (Ki) at cIAP2, at c-IAP1 and at XIAP were less than 25 nM, less than 25 nM and less than 250 nM, respectively. Further, in assay [1], the EC50 was less than 50 nM.
Take `CN[C@@H](C)C(=O)N[C@H](C(=O)N1CCC[C@H]1CN(CCc1ccc(F)cc1)C(=O)c1cn(-c2ccc(F)cc2)cn1)C1CCCCC1` [Compound 104]: the results for the inhibition constant (Ki) at cIAP2, on c-IAP1 and on XIAP were less than 25 nM, less than 25 nM and less than 250 nM, respectively. Besides, the EC50 in assay [1] was less than 50 nM.
For the molecule `CCN[C@@H](C)C(=O)N[C@H](C(=O)N1CCC[C@H]1CN(CCc1ccccc1)C(=O)c1cn2cccnc2n1)C1CCOCC1` [Compound 4], the inhibition constant Ki is less than 250 nM on cIAP2, less than 250 nM at c-IAP1 and less than 1000 nM at XIAP. Further, in assay [1], the EC50 is greater than 1000 nM.
As for `CN[C@@H](C)C(=O)N[C@H](C(=O)N1CCC[C@H]1CN(CCc1ccc(F)cc1)C(=O)c1cc(-c2ccccc2)on1)C(C)(C)C` [Compound 115], the inhibitory constant (Ki) on cIAP2 was less than 25 nM; at c-IAP1 it was less than 25 nM; on XIAP it was less than 250 nM. Also, the EC50 in assay [1] was less than 250 nM.
As for `CN[C@@H](C)C(=O)N[C@H](C(=O)N1C[C@@H](NC(C)=O)C[C@H]1CN(CCc1ccc(F)cc1)C(=O)c1cn2cccnc2n1)C(C)(C)C` [Compound 55], the Ki on cIAP2 is less than 25 nM; at c-IAP1 it was less than 25 nM; at XIAP, less than 250 nM. The EC50 in assay [1] was greater than 1000 nM.
For the molecule `CN[C@@H](C)C(=O)N[C@H](C(=O)N1CCC[C@H]1CN(CCc1ccc(F)cc1)C(=O)c1cn(C)cn1)[C@@H](C)OC` [Compound 73], the inhibition constant (Ki) at cIAP2 was less than 25 nM; on c-IAP1 it was less than 25 nM; on XIAP it was less than 250 nM. In addition, the 50% effective concentration (EC50) in assay [1] is less than 250 nM.
As to `CN[C@@H](C)C(=O)N[C@H](C(=O)N1CCC[C@H]1CN(CCc1ccc(F)cc1)C(=O)c1cn(-c2ccc(F)cc2)nn1)C(C)(C)C` [Compound 125], the inhibition constant (Ki) was less than 25 nM on cIAP2, less than 25 nM at c-IAP1 and less than 250 nM at XIAP.
For the molecule `CN[C@@H](C)C(=O)N[C@H](C(=O)N1C[C@@H](NC(=O)c2ccccc2)C[C@H]1CN(CCc1ccc(F)cc1)C(=O)c1cn(C)cn1)C(C)(C)C` [Compound 86], the results for the Ki at cIAP2, at c-IAP1 and at XIAP were less than 25 nM, less than 25 nM and less than 250 nM, respectively. Besides, in assay [1], the EC50 is less than 50 nM.
Consider `CCO[C@H](C)[C@H](NC(=O)[C@H](C)NC)C(=O)N1CCC[C@H]1CN(CCc1ccc(F)cc1)C(=O)c1cn2c(n1)CCC2` [Compound 81], for which the values for the Ki on cIAP2, at c-IAP1 and at XIAP were less than 25 nM, less than 25 nM and less than 250 nM, respectively. For the same molecule, in assay [1], the 50% effective concentration (EC50) is less than 50 nM.
With `CN[C@@H](C)C(=O)N[C@H](C(=O)N1CCC[C@H]1CN(CCc1ccc(F)cc1)C(=O)c1cn(-c2ccccc2)nn1)C(C)(C)C` [Compound 50], the Ki at cIAP2 was less than 25 nM; on c-IAP1, less than 25 nM; at XIAP it was less than 250 nM. Also, in assay [1], the EC50 is less than 250 nM.
In the case of `CN[C@@H](C)C(=O)N[C@H](C(=O)N1C[C@@H](Oc2ccc(OC)cc2)C[C@H]1CN(CCc1ccc(F)cc1)C(=O)c1cn2ccccc2n1)C(C)(C)C` [Compound 105], the inhibition constant Ki on cIAP2, on c-IAP1 and on XIAP was less than 25 nM in each case. Further, the EC50 in assay [1] is less than 50 nM.
For `CCO[C@H](C)[C@H](NC(=O)[C@H](C)NC)C(=O)N1CCC[C@H]1CN(CCc1ccc(F)cc1)C(=O)c1cn(-c2ccc(F)cc2)cn1` [Compound 79], the values for the inhibitory constant (Ki) at cIAP2, at c-IAP1 and on XIAP were less than 25 nM, less than 25 nM and less than 250 nM, respectively. For the same molecule, in assay [1], the EC50 was less than 50 nM.
As for `C[C@H](N)C(=O)N[C@H](C(=O)N1CCC[C@H]1CN(CCc1ccc(F)cc1)C(=O)c1cn2cccnc2n1)C(C)(C)C` [Compound 37], the Ki is less than 25 nM at cIAP2, less than 25 nM on c-IAP1 and less than 250 nM on XIAP. Further, in assay [1], the concentration for a half-maximal effect (EC50) is greater than 1000 nM.
In the case of `CN[C@@H](C)C(=O)N[C@H](C(=O)N1CCC[C@H]1CN(CCc1ccc(F)cc1)C(=O)c1nnn(-c2ccc(F)cc2)n1)C(C)(C)C` [Compound 126], the Ki is less than 25 nM at cIAP2, less than 25 nM at c-IAP1 and less than 250 nM at XIAP.
Consider `CN[C@@H](C)C(=O)N[C@@H](CN(C)C)C(=O)N1CCC[C@H]1CN(CCc1ccc(F)cc1)C(=O)c1cn2ccccc2n1` [Compound 57], for which the Ki at c-IAP1 is less than 25 nM; at XIAP, less than 1000 nM. Also, the EC50 in assay [1] is less than 1000 nM.
Consider `CN[C@@H](C)C(=O)N[C@H](C(=O)N1CCC[C@H]1CN(CCc1ccc(F)cc1)C(=O)C(=O)Nc1ccc(F)cc1)C(C)(C)C` [Compound 42], for which the Ki was less than 25 nM at c-IAP1 and less than 250 nM on XIAP. In addition, in assay [1], the concentration for a half-maximal effect (EC50) was less than 1000 nM.
The matching figures for `CN[C@@H](C)C(=O)N[C@H](C(=O)N1CCC[C@H]1CN(CCc1ccccc1)C(=O)c1c[nH]cn1)C(C)(C)C` [Compound 21]: less than 25 nM, less than 250 nM and less than 1000 nM.
Take `CN[C@@H](C)C(=O)N[C@H](C(=O)N1CCC[C@H]1CN(CCc1ccc(F)cc1)C(=O)c1cn2cc(F)ccc2n1)C(C)(C)C` [Compound 39]: the inhibition constant (Ki) is less than 25 nM on c-IAP1 and less than 250 nM at XIAP. In addition, in assay [1], the EC50 was less than 250 nM.
Consider `CN[C@@H](C)C(=O)N[C@H](C(=O)N1CCC[C@H]1CN(CCc1ccccc1)C(=O)c1cn(C)cn1)C(C)(C)C` [Compound 34], for which the values for the Ki at c-IAP1 and at XIAP were less than 25 nM and less than 250 nM, respectively. In assay [1], the 50% effective concentration (EC50) is less than 250 nM.
`CN[C@@H](C)C(=O)N[C@H](C(=O)N1CCC[C@H]1CN(CCc1ccc(F)cc1)C(=O)c1cn(-c2ccc(OC)cc2)cn1)C(C)(C)C` [Compound 52]: the Ki at c-IAP1 was less than 25 nM; at XIAP, less than 250 nM. Moreover, the EC50 in assay [1] was less than 250 nM.
Consider `CN[C@@H](C)C(=O)N[C@H](C(=O)N1CCC[C@H]1CN(CCc1ccc(F)cc1)C(=O)c1cn2cc(N)ccc2n1)C(C)(C)C` [Compound 45], for which the inhibition constant Ki on c-IAP1 and at XIAP was less than 25 nM each time. In addition, the EC50 in assay [1] was less than 50 nM.
For the molecule `CN[C@@H](C)C(=O)N[C@H](C(=O)N1CCC[C@H]1CN(CCc1ccccc1)C(=O)c1c[nH]c2ccccc12)C(C)(C)C` [Compound 24], the inhibitory constant (Ki) was less than 25 nM on c-IAP1 and less than 250 nM at XIAP. Further, the EC50 in assay [1] was less than 250 nM.
As for `CN[C@@H](C)C(=O)N[C@H](C(=O)N1CCC[C@H]1CN(CCc1ccc(F)cc1)C(=O)c1nc2ccccc2o1)C(C)(C)C` [Compound 62], the inhibitory constant (Ki) at c-IAP1 was less than 25 nM; on XIAP, less than 250 nM. Further, in assay [1], the 50% effective concentration (EC50) is less than 1000 nM.
The matching figures for `CN[C@@H](C)C(=O)N[C@H](C(=O)N1CCC[C@H]1CN(CCc1ccccc1)C(=O)c1cn2ccccc2n1)C1CCCCC1` [Compound 13]: less than 25 nM, less than 250 nM and less than 250 nM.
On to `CN[C@@H](C)C(=O)N[C@H](C(=O)N1CCC[C@H]1CN(CCc1ccccc1)C(=O)c1cn2cccnc2n1)C1CCCCC1` [Compound 5], for which the inhibitory constant (Ki) was less than 25 nM at c-IAP1 and less than 250 nM on XIAP. The 50% effective concentration (EC50) in assay [1] was less than 50 nM.
The corresponding values for `CN[C@@H](C)C(=O)N[C@H](C(=O)N1CCC[C@H]1CN(CCc1ccc(F)cc1)C(=O)C(=O)Nc1ccc(OC)cc1)C(C)(C)C` [Compound 41] are less than 25 nM, less than 250 nM and less than 1000 nM.
The corresponding values for `CN[C@@H](C)C(=O)N[C@H](C(=O)N1CCC[C@H]1CN(CCc1ccc(F)cc1)C(=O)c1cn2cc(NC(C)=O)ccc2n1)C(C)(C)C` [Compound 43] are less than 25 nM, less than 250 nM and less than 250 nM.
